Data as given in patent US9624188B2, “IDO inhibitors” (BRISTOL-MYERS SQUIBB COMPANY, priority 2013, dated 2017).

Each compound was assayed against Human IDO1 (Homo sapiens (Human), UniProt P14902) (assay: IDO Kynurenine Assay with Human IDO1/HEK293 Cells). Details: 20 hours incubation, kynurenine detected with Ehrlich reagent, absorbance at 490 nm, read-out: HEK Human IDO-1 IC50.
Sequence of Human IDO1 (P14902 whole entry): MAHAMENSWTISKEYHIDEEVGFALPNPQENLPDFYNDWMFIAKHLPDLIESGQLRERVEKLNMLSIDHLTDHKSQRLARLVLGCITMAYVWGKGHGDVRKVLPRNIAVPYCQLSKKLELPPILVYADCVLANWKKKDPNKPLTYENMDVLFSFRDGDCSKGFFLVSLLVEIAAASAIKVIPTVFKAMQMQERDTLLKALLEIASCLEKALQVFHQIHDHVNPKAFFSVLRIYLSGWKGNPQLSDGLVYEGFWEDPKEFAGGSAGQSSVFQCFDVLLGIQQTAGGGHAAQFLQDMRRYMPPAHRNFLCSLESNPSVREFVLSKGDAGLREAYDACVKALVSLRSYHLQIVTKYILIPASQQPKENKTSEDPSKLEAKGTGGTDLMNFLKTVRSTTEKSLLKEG
Type: cell-based
Experimental: IDO Kynurenine Assay with Human IDO1/HEK293 Cells
Human IDO1/HEK293 cells were seeded at 10,000 cells per 50 uL per well with RPMI/phenol red free media contains 10% FBS in a 384-well black wall clear bottom tissue culture plate (Matrix Technologies LLC) 125 nL of certain concentration of compound was then added to each well using ECHO liquid handling systems. The cells were incubated for 20 hours in 37° C. incubator with 5% CO2.
The compound treatments were stopped by adding Trichloroacetic Acid (Sigma-Aldrich) to a final concentration at 0.2%. The cell plate was further incubated at 50° C. for 30 minute. The equal volume supernatant (20 uL) and 0.2% (w/v) Ehrlich reagent (4-dimethylaminobenzaldehyde, Sigma-Aldrich) in glacial acetic acid were mixed in a new clear bottom 384-well plate. This plate was then incubated at room temperature for 30 minute. The absorbance at 490 nm was measured on Envision plate reader.
Compound IC50 values were calculated using the counts of 500 nM of a reference standard treatment as one hundred percent inhibition, and counts of no compound but DMSO treatment as zero percent inhibition.
With `Cc1cc(NC(=O)Nc2cc(C(C)CC(=O)O)ccc2N(CC(C)C)CC(C)C)on1` (racemic) [Example 13, 3-(4-(diisobutylamino)-3-(3-(3-methylisoxazol-5-yl)ureido)phenyl)butanoic acid] the IC50 was 3 nM. `Cc1ccc(NC(=O)Nc2cc(C(C)CC(=O)O)ccc2N(CC(C)C)C2CCCCC2)cc1` (racemic) [Example 49, 3-(4-(cyclohexyl(isobutyl)amino)-3-(3-(p-tolyl)ureido)phenyl)butanoic acid] gave an IC50 of 1 nM. `Cc1ccc(NC(=O)Nc2cc(C3(CC(=O)O)COC3)ccc2N(CC(C)C)CC(C)C)cc1` [Example 2, 2-(3-(4-(diisobutylamino)-3-(3-(p-tolyl)ureido)phenyl)oxetan-3-yl)acetic acid] showed an IC50 of 205 nM. In the case of `CC(C)CN(CC(C)C)c1ccc(C(CC(=O)O)C(F)(F)F)cc1NC(=O)Nc1ccc(F)cc1F` (centres unmarked) [Example 30, 3-(3-(3-(2,4-difluorophenyl)ureido)-4-(diisobutylamino)phenyl)-4,4,4-trifluorobutanoic acid], the IC50 is reported as 0.7 nM. For `CC(C)CN(CC(C)C)c1ccc([C@H](C)CC(=O)O)cc1NC(=O)Nc1cncnc1` [Example 37, (R)-3-(4-(diisobutylamino)-3-(3-(pyrimidin-5-yl)ureido)phenyl)butanoic acid], the IC50 was 11 nM. With `CC(C)CN(CC(C)C)c1ccc([C@@H](C)CC(=O)O)cc1NC(=O)Nc1cncnc1` [Example 38, (S)-3-(4-(diisobutylamino)-3-(3-(pyrimidin-5-yl)ureido)phenyl)butanoic acid] the IC50 was 29 nM. `Cc1ncc(NC(=O)Nc2cc([C@@H](C)CC(=O)O)ccc2N(CC(C)C)CC(C)C)cn1` [Example 39, (S)-3-(4-(diisobutylamino)-3-(3-(2-methylpyrimidin-5-yl)ureido)phenyl)butanoic acid] gave an IC50 of 169 nM. For `Cc1ncc(NC(=O)Nc2cc([C@H](C)CC(=O)O)ccc2N(CC(C)C)CC(C)C)cn1` [Example 40, (R)-3-(4-(diisobutylamino)-3-(3-(2-methylpyrimidin-5-yl)ureido)phenyl)butanoic acid], the IC50 was 22 nM. For `Cc1ccc(NC(=O)Nc2cc([C@@H](C)CC(=O)O)ccc2N(CC(C)C)CC(C)C)cc1` [Example 43, (S)-3-(4-(diisobutylamino)-3-(3-(p-tolyl)ureido)phenyl)butanoic acid], the IC50 was 17 nM. For `Cc1cc(NC(=O)Nc2cc([C@@H](C)CC(=O)O)ccc2N(CC(C)C)CC(C)C)no1` [Example 44, (S)-3-(4-(diisobutylamino)-3-(3-(5-methylisoxazol-3-yl)ureido)phenyl)butanoic acid], the IC50 was 87 nM. For `CC(C)CN(CC(C)C)c1ccc([C@H](C)CC(=O)O)cc1NC(=O)Cc1ccc(C#N)cc1` [Example 45, (R)-3-(3-(2-(4-cyanophenyl)acetamido)-4-(diisobutylamino)phenyl)butanoic acid], the IC50 was 5 nM.
